The subject of data set [1] is Salmonella typhimurium tester strains TA98, TA100, TA1535 and TA1537 and Escherichia coli tester strain WP2 uv. The data set is described as follows: Ames test. The class given is cell-based. The note with it: absence and presence of rat liver S9, up to highest dose tested 5000 ug/plate. Here is the method:
The title compound was subjected to an Ames test (Salmonella typhimurium tester strains TA98, TA100, TA1535 and TA1537 and Escherichia coli tester strain WP2 uv. Mutation Research 1975, 31, 347; Mutation Research 1976, 38, 3; Proc. Nat. Acad. Sci. USA 1976, 73, 950; Proc. Nat. Acad. Sci. USA 1975, 72, 5135) in the absence and presence of rat liver S9. The compound was negative up to the highest dose/concentration tested (5000 ug/plate).
On the technique in general: The Ames test uses bacterial strains that need an amino acid and regain growth without it when mutated back.

The nature of data set [2]: Plasma protein binding (PPB), rapid equilibrium dialysis. Format: in vitro ADME. As to conditions: male, Sprague Dawley, rat, RED 6 h 37° C. Here is the method: (§1) Method For Determination of Plasma Protein Binding (PPB) and Brain Tissue Binding (BTB)
(§2) On the morning of dialysis, control male Sprague Dawley rat plasma and brain, previously stored at −80° C. were thawed at room temperature. Plasma was checked for pH and if necessary adjusted to 7.4 with 1M HCl. Plasma was then centrifuged (2000 g for 10 min) and the brains diluted with 2 mL of Phosphate Buffered Saline (pH 7.4) per gram of tissue and homogenised using a mechanical homogeniser.
(§3) The Rapid Equilibrium Dialysis (RED) plate (Thermo Scientific) was prepared in accordance with the manufacturers guidelines i.e. the base plate was soaked in 20% (v/v) ethanol for 10 min and then rinsed twice with deionised water before being allowed to dry. […] The plate was then covered with an adhesive and incubated in air at 37° C. for 6 h with 130 rpm agitation.
(§4) Following the 6 h incubation, the seal was removed and an aliquot (50 μL) taken from the PBS chambers and dispensed into Micronics tubes. […]
(§5) Samples were vortex mixed and an aliquot (300 μL) of acetonitrile containing 0.1% formic acid and 100 ng/mL of an appropriate internal standard added. Samples were then mixed and centrifuged (2000 g for 15 min) and an aliquot of the supernatant (100 μL) removed into a 96-deep well plate and diluted with an equal volume of water ready for analysis by LC-MS/MS.
In general terms: In equilibrium dialysis only unbound substance equilibrates across the membrane.

Data set [3] relates to Aβ peptide production in rat primary neuronal culture. The data set is described as follows: Quantification of Aβ peptide in culture of neurons from rat fetus brain (Aβ ELISA). The class given is cell-based. The note with it: Primary cortical neuron, Aβ species (ABx-40 1 day / ABx-42 3 days) not given. Background: ELISA stands for enzyme-linked immunosorbent assay.
Data set [4] in a line: Effects on QTc interval in anaesthetised beagle dogs. The class given is in vivo. As to conditions: anaesthetised beagle dog, infusion 1, 3, 10 mg/kg/10 min, up to the highest dose/concentration tested. Here is the method: Assessment of Effects on QTc Interval in Beagle Dogs
Male beagle dogs were weighed and injected with sodium thiopental for induction of anesthesia.
The carotid artery and saphenous vein were cannulated with lines containing heparinised saline and a LII ECG connected and monitored using polygraph system. Animals were allowed to stabilise for 30 minutes before the infusion of compound solution and the infusion via cannula was started from time zero with 1 mg/kg/10 min. The dose was increased to 3 mg/kg/10 min, then 10 mg/kg/10 min. An arterial blood sample was collected after every dosing for PK analysis.

Data set [5] is described as follows: Rat in vivo CNS penetration (plasma, brain and CSF concentrations). As to conditions: 10 mg/kg p.o.; for Kp at 2 h / Kp at 4 h / Kp at 6 h / Kp at 8 h: male, Sprague Dawley, po, rat. Here is the method: Rat In Vivo CNS Penetration
Male Sprague Dawley rats were acquired from Charles River UK Ltd. (Margate, UK) and housed according to UK Home Office guidelines. Drugs were made up to the appropriate concentrations in 0.5% methyl cellulose. Animals were dosed orally (2 mL/kg) by gavage at the doses outlined in Tables 2 to 4 below.
At the time points post-dosing, specified in Tables 2 to 4 below the animals were administered an i.p. injection of sodium pentobarbitone (approximately 330 mg/kg for terminal anaesthesia).
Using a guillotine, the animals were decapitated and trunk blood collected into 15 ml Falcon tubes containing 100 IU heparin. Blood was vortexed followed by centrifugation at 6000 rpm, 4° C. for 5 minutes. Plasma was collected for DMPK and ELISA assays and stored at −80° C. until use. Brains were dissected out and divided along the midline, weighed and stored at −80° C. until further use.
Method for Analysis of Plasma, Brain and CSF Samples
Test compound was prepared as a 1 mg free base/mL solution in DMSO, vortexed and sonicated for 5 min. The 1 mg/mL DMSO solution was diluted to 10 and 30 μg/mL acetonitrile stocks, by adding 10 μL to 990 μL acetonitrile and 30 μL to 970 μL acetonitrile, respectively. The 10 and 30 μg/mL acetonitrile stocks were then serially diluted 1:9 (v/v) (100 μL stock into 900 μL acetonitrile) to give the following solutions: 0.003, 0.01, 0.03, 0.1, 0.3, 1, 3, 10 and 30 μg/mL acetonitrile.
Control male Sprague Dawley rat plasma and the study plasma samples were stored at −80° C. until the day of analysis when they were thawed at room temperature. Control plasma was centrifuged (2,000 g for 10 min) and aliquoted (90 μL) into eppendorf tubes for preparation of standards and blank samples. Study samples were previously aliquoted (100 μL) into eppendorf tubes immediately following collection of the plasma.
Double blank and blank samples were prepared by adding 10 μL of acetonitrile to 90 μL of blank plasma.
Control male Sprague Dawley rat brain and the study brain samples were weighed after collection and stored at −80° C. until the day of analysis when they were thawed at room temperature. Once thawed brains were diluted with water (4 mL per gram of tissue) and homogenised using a mechanical homogeniser. An aliquot (100 μL) of each study sample was taken into Micronics tubes ready for analysis and sufficient aliquots (90 μL) of control brain homogenate prepared for preparation of standards and blanks.
Double blank and blank samples were prepared by adding 10 μL of acetonitrile to 90 μL of blank brain homogenate.
Each plasma and brain homogenate sample, standard and blank (100 μL) was extracted with an aliquot (300 μL) of acetonitrile (containing 0.1% formic acid and 100 ng/mL of an appropriate internal standard). Double blanks were extracted with an aliquot (300 μL) of acetonitrile containing 0.1% formic acid). All samples, standards and blanks were then vortex mixed and centrifuged (2000 g for 15 min). An aliquot (50 μL) of the resulting supernatant was then taken into a 2 mL 96-deep well plate and diluted with acetonitrile:water (50:50 v/v) (150 μL) ready for analysis by a specific LC-MS/MS method.
Control male Sprague Dawley rat CSF and the study CSF samples were stored at −80° C. until the day of analysis when they were thawed at room temperature. An aliquot (50 μL) of each study sample was taken into Micronics tubes ready for analysis and sufficient aliquots (45 μL) of control CSF prepared for preparation of standards and blanks.
Double blank and blank samples were prepared by adding 5 μL of acetonitrile to 45 μL of blank CSF.
Each CSF sample, standard and blank (50 μL) was extracted with an aliquot (150 μL) of acetonitrile (containing 0.1% formic acid and 100 ng/mL of an appropriate internal standard). Double blanks were extracted with an aliquot (150 μL) of acetonitrile containing 0.1% formic acid.

In data set [6] the target is T1, P-glycoprotein (MDR1-MDCK cells) (Homo sapiens, UniProt P08183).
T1 construct: assay run at Cyprotex Discovery Ltd; host or cells: MDCK (canine kidney epithelial) cells stably transfected with MDR1
T1 sequence (P08183 whole entry): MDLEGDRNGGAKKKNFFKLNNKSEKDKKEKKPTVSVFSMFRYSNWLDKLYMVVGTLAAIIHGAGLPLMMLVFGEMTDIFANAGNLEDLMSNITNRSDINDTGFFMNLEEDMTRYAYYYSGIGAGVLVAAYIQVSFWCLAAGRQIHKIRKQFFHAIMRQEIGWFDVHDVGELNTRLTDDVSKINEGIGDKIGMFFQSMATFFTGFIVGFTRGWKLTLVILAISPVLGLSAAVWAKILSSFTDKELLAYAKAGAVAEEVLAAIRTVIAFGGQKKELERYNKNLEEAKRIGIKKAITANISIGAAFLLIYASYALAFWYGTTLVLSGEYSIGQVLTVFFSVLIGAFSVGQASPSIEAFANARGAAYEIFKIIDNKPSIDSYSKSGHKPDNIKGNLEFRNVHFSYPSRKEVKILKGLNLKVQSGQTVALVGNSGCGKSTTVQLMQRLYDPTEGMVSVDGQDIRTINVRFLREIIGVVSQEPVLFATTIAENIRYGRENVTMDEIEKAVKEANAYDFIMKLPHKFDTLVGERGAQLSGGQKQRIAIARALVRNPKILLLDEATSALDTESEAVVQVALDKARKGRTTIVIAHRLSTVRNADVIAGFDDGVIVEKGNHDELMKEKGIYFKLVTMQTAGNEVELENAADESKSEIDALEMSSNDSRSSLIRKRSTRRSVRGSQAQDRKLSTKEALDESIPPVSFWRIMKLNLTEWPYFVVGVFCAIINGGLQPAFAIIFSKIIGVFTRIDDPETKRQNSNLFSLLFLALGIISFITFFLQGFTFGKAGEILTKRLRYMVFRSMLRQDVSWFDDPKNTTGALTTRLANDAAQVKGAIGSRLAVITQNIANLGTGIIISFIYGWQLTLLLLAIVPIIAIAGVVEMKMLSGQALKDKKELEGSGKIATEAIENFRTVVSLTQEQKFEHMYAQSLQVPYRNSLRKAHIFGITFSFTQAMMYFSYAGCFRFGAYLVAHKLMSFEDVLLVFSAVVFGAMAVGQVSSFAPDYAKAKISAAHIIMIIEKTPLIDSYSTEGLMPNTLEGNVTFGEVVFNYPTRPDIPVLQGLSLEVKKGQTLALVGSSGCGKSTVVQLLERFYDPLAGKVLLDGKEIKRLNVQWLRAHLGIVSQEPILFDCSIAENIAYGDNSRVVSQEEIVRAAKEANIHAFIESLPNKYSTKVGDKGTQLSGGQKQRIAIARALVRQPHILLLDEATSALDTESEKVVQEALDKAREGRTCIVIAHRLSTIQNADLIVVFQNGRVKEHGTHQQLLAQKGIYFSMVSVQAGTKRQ
The data set is described as follows: MDR1-MDCK permeability (bi-directional) Pgp efflux assay. Format: in vitro ADME. The note with it: MDR1-MDCK, pH 7.4/pH 7.4, 10 μM, 60 min; ER=Papp(B-A)/Papp(A-B). Here is the method: (§6) Test compound permeability was assessed in duplicate.
(§7) Test and control compounds were quantified by LC-MS/MS cassette analysis using a 5-point calibration with appropriate dilution of the samples. Cyprotex generic analytical conditions were used. The starting concentration (C0) was determined from the dosing solution and the experimental recovery calculated from C0 and both apical and basolateral compartment concentrations.
(§8) Lucifer yellow permeation is low if monolayers have not been damaged.
(§9) Where dQ/dt is the rate of permeation of the drug across the cells, C0 is the donor compartment concentration at time zero and A is the area of the cell monolayer.

A short description of data set [7]: Effects on QTc interval in anaesthetised guinea pigs. The class given is in vivo. As to conditions: anaesthetised guinea pig, i.v. infusion 2.0, 6.0, 20 mg/kg/10 min, up to the highest dose/concentration tested.
Method: Assessment of Effects on QTc Interval in Guinea Pigs
Male Dunkin-Hartley guinea pigs were weighed and anaesthetised using 4% isoflurane in carbogen. […] Xylazine at 2 mg/kg i.m. was administered into the hind limb as a bradycardic agent to enable detection of QTc prolongation by the software.
The carotid artery and jugular vein were cannulated with lines containing heparinised saline and a 3-lead ECG connected and monitored using LabChart Pro software. Animals were allowed to stabilise for 30 minutes after the completion of the surgical procedure, before the initiation of an i.v. vehicle (5% DMSO/90% MilliQ/5% 0.1N HCl) infusion from time zero (infusion rate=0.2 ml/kg/min). At 10 mins, an arterial blood sample was collected for PK analysis (150u1; all collection syringes were heparinised). At 12 mins, drug infusion was started @ 2.0 mg/kg/10 min i.v. The dose was increased to 6.0 mg/kg/10 min, then 20 mg/kg/10 min i.v., with a 10 minutes infusion period and two minutes blood sampling at each dose. After the final dose, a blood sample was taken and a second vehicle infusion initiated. Eight minutes later a terminal blood sample was collected for plasma PK analysis and the animal killed by a Schedule 1 method.
QTc (Bazett's) changes were analysed using LabChart Pro software.
A short description of data set [8]: Brain tissue binding (BTB), rapid equilibrium dialysis. The class given is in vitro ADME. As to conditions: rat brain homogenate, RED 6 h 37° C. Here is the method:
as §1, §2, §3, §4, §5

Another data set addresses T2, P-glycoprotein (MDR1) (Homo sapiens, UniProt P08183).
T2 construct: assay run at Cyprotex Discovery Ltd; host or cells: MDCK (canine kidney epithelial) cells stably transfected with MDR1
As to the kind of experiment: MDR1-MDCK permeability (bi-directional) Pgp efflux assay. Format: in vitro ADME. The note with it: dog, MDCK-MDR1, pH 7.4; read-out: Pgp ER. Here is the method: as §6, §7, §8, §9

For data set [9] the following is noted: TASTPM mice, cited from earlier work; for brain concentration: oral dose of 250 mg/kg.
The next data set concerns Aβ40. The note with it: TASTPM mice, cited from earlier work.
Another data set has as its target BACE-1 (Homo sapiens, UniProt P56817). The note with it: cited from earlier work.
Where [10] appears, read: CSF / plasma (unbound), read-out: CSF:Plu.
Where [11] appears, read: brain (total) / plasma (total), read-out: Brtot:Pltot.
[12] abbreviates: brain (unbound) / plasma (unbound), read-out: Bru:Plu.

Data on four molecules can be found in US8592408B2, “Fused aminodihydrothiazine derivatives” (Eisai R&D Management Co., Ltd., priority 2011, dated 2013).

Where two headings read alike, the source gives them in different places.

T2 sequence (P08183 whole entry): as above
BACE-1, sequence (P56817 46-501, species assumed): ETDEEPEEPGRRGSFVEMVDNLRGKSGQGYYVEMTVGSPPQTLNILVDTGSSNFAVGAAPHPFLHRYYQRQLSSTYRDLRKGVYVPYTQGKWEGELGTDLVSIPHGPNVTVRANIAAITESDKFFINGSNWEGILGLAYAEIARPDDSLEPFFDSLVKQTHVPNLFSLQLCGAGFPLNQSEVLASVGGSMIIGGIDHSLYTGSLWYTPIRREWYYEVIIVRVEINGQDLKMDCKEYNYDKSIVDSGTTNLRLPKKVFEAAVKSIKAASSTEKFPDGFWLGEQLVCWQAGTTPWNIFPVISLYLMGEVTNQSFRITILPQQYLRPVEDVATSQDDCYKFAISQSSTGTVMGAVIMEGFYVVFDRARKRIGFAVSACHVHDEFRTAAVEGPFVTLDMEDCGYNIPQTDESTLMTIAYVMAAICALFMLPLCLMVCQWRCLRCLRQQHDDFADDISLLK

With `NC1=N[C@@]2(c3cc(N)ccc3F)CO[C@H](C(F)(F)F)[C@H]2CS1` [1-(25), (4aS,5S,7aS)-7a-(5-amino-2-fluorophenyl)-5-(trifluoromethyl)-4a,5,7,7a-tetrahydro-4H-furo[3,4-d][1,3]thiazin-2-amine], in data set [1], the Ames test result is recorded as “negative”.

For orientation: IC50 means the midpoint of a concentration-inhibition curve. In the case of `NC1=N[C@@]2(c3cc(NC(=O)c4cnc(CF)cn4)ccc3F)CO[C@H](C(F)(F)F)[C@H]2CS1` [Example 8, N-(3-((4aS,5S,7aS)-2-amino-5-(trifluoromethyl)-4a,5,7,7a-tetrahydro-4H-furo[3,4-d][1,3]thiazin-7a-yl)-4-fluorophenyl)-5-(fluoromethyl)pyrazine-2-carboxamide], the fraction unbound at 6 h, 1 μg/mL in data set [2] (pH 7.4, fraction unbound, rat plasma, mean of n = 3, read-out: Rat Plasma fu) was 0.104; in data set [2] (pH 7.4, rat plasma, mean of n = 3, read-out: Rat PPB (%) (converted)), 0.104; in [8] (male, Sprague Dawley, pH 7.4, fraction unbound, mean of n = 3, read-out: Rat Brain fu) it was 0.022. The molecule further registered an IC50 in data set [3] of 6 nM. Moreover, the QTc change entry in data set [4] was “unchanged”. Besides, the figures for the Kp at 2 h in data set [5] (setting [10]), in data set [5] (setting [11]) and in data set [5] (setting [12]) were 0.5, 3.3 and 0.7, respectively. The Kp at 4 h was 0.6 in data set [5] (setting [10]), 3.9 in data set [5] (setting [11]) and 0.8 in [5] (setting [12]). Besides, the Kp at 6 h in data set [5] (setting [10]) was determined as 0.5; in data set [5] (setting [11]), 3.7; in data set [5] (setting [12]), 0.8. In addition, the Kp at 8 h in [5] (brain (total) / plasma (total), 8 h, read-out: Brtot:Pltot) amounted to 3.8; in data set [5] (brain (unbound) / plasma (unbound), 8 h, read-out: Bru:Plu), 0.8. Moreover, in data set [5] (rat CSF, 8 h), the “[CSF]” value is given as “^3n.q”. For the same molecule, in [6], the “Pgp ER” value is on record as 1.7. Further, in data set [7], the “QTc (Bazett's) change” value is “unchanged”. For the same molecule, the “Rat BTB (%)” value in data set [8] (1 μg/mL, mean of n = 3) stood at 97.8%.

Take `COCc1cnc(C(=O)Nc2ccc(F)c([C@]34CO[C@H](C(F)(F)F)[C@H]3CSC(N)=N4)c2)cn1` [Example 13, N-(3-((4aS,5S,7aS)-2-amino-5-(trifluoromethyl)-4a,5,7,7a-tetrahydro-4H-furo[3,4-d][1,3]thiazin-7a-yl)-4-fluorophenyl)-5-(methoxymethyl)pyrazine-2-carboxamide]: 44 nM corresponded to half-maximal inhibition in data set [3] (IC50). Besides, the efflux ratio at 60 min, 10 μM on P-glycoprotein (MDR1) was 1.7.

On to `CCNc1cc(C(=O)N[C@@H](Cc2ccccc2)[C@H](O)CNCc2cccc(C(F)(F)F)c2)c(F)c(N2CCCCS2(=O)=O)c1` [GSK188909], for which the “increase in CNS penetration by co-administration of a Pgp inhibitor” value in data set [9] (250 mg/kg oral, with vs without GF120918) is given as ~9 fold. The brain concentration in [9] (Pgp inhibitor GF120918 dosed 5 hours before) was 5.43 µM; in data set [9] (no Pgp inhibitor), 0.62 µM. In addition, the “effect on brain Aβ40 levels” value with Aβ40 (250 mg/kg oral dose, absence of a Pgp inhibitor) is reported as “did not have any effect”. Besides, the “reduction in brain Aβ40 levels relative to vehicle treated mice” value in the data set with Aβ40 (250 mg/kg oral, Pgp inhibitor co-administered 5 hours prior) is listed as 68%. Moreover, the IC50 at BACE-1 was 5 nM.
